From ChEMBL document CHEMBL1201862, “PubChem BioAssay data set” (2004)
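Dose response: 5 concentrations. Exposure: 48 h. Format: 96-well plates. Endpoint: linear interpolation; highest concentration if not reached. The concentration for 50% growth inhibition is given as GI50.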 Active and inactive are the calls of the source. Rule as the data show it: active = GI50 up to about 1.1 µM and inactive = higher.

Experiments:
Experiment in all cases: inhibition of tumour cell growth, NCI panel, 48 h
[1] = system: MDA-N
[2] = system: IGROV-1
[3] = system: CCRF-CEM
[4] = system: LOX IMVI
[5] = system: MOLT-4
[6] = system: OVCAR-3
[7] = system: OVCAR-5
[8] = system: COLO 205
[9] = system: NCI-H522
[10] = system: SNB-75
[11] = system: KM12
[12] = system: SNB-19
[13] = system: DU-145
[14] = system: NCI-H226
[15] = system: CAKI-1
[16] = system: HCT-116
[17] = system: SF-539
[18] = system: SK-MEL-28
[19] = system: NCI/ADR-RES

Measured: GI50

COC1C(OC(=O)c2ccc(C)[nH]2)C(O)C(Oc2ccc3c(O)c(NC(=O)c4ccc(O)c(CC=C(C)C)c4)c(=O)oc3c2Cl)OC1(C)C (stereo not drawn)
inactive: [1] 23 µM | [2] 15.5 µM | [3] 18.1 µM | [4] 18.1 µM | [5] 16.2 µM | [6] 18.7 µM | [7] 15.9 µM | [8] 15.9 µM | [9] 13.2 µM | [10] 19.1 µM | [11] 12.5 µM | [12] 15.7 µM | [13] 31 µM | [14] 12.5 µM | [15] 18.7 µM | [16] 16.4 µM | [17] 18 µM | [18] 16.3 µM

CCOC(=O)NC
inactive: [1] > 100 µM | [2] > 100 µM | [3] > 100 µM | [4] > 100 µM | [6] > 100 µM | [7] > 100 µM | [8] > 100 µM | [10] > 100 µM | [11] > 100 µM | [12] > 100 µM | [13] > 100 µM | [19] > 100 µM | [15] > 100 µM | [16] > 100 µM | [17] > 100 µM | [18] > 100 µM

COc1ccc(NC(S)=Nc2cccc(C)n2)cc1
inactive: [2] 70.6 µM | [3] > 100 µM | [4] > 100 µM | [5] > 100 µM | [8] > 100 µM | [10] 69.5 µM | [11] > 100 µM | [12] > 100 µM | [13] > 100 µM | [14] > 100 µM | [19] > 100 µM | [15] 37.9 µM | [16] > 100 µM | [17] 74.6 µM | [18] > 100 µM

COC(=O)C1CC2CC(=NNC(N)=O)CC2C1 (stereo not drawn)
inactive: [2] > 100 µM | [3] > 100 µM | [4] > 100 µM | [5] > 100 µM | [6] > 100 µM | [7] > 100 µM | [8] > 100 µM | [9] > 100 µM | [10] > 100 µM | [11] > 100 µM | [12] > 100 µM | [15] > 100 µM | [16] > 100 µM | [17] > 100 µM | [18] > 100 µM

CCOC(=O)c1ccc(Nc2nc3ccc(C(F)(F)F)cc3nc2-c2ccccc2)cc1
inactive: [2] 71.9 µM | [3] 63.4 µM | [4] > 100 µM | [5] 38.1 µM | [6] > 100 µM | [7] > 100 µM | [9] 47.9 µM | [10] 41.3 µM | [11] > 100 µM | [12] > 100 µM | [13] > 100 µM | [14] > 100 µM | [19] > 100 µM | [15] > 100 µM | [16] 84.9 µM | [17] > 100 µM | [18] > 100 µM

COc1ccc(C2OCCN2C)cc1 (stereo not drawn)
inactive: [1] > 100 µM | [2] > 100 µM | [3] > 100 µM | [4] 58.2 µM | [5] > 100 µM | [6] > 100 µM | [7] > 100 µM | [8] > 100 µM | [9] > 100 µM | [10] 36.9 µM | [11] > 100 µM | [12] > 100 µM | [14] > 100 µM | [19] > 100 µM | [15] > 100 µM | [16] > 100 µM | [17] > 100 µM

Cc1cc2c(cc1Cl)S(=O)(=O)OC(c1ccc([N+](=O)[O-])cc1)=N2
inactive: [2] > 100 µM | [3] > 100 µM | [4] > 100 µM | [5] > 100 µM | [6] > 100 µM | [8] > 100 µM | [9] > 100 µM | [10] 44.4 µM | [11] > 100 µM | [12] > 100 µM | [13] > 100 µM | [14] > 100 µM | [19] > 100 µM | [15] > 100 µM | [16] > 100 µM | [17] > 100 µM | [18] > 100 µM

Nc1cc(N2CCCC2)nc(=O)n1-c1ccccc1
inactive: [2] > 100 µM | [3] > 100 µM | [4] > 100 µM | [5] > 100 µM | [7] > 100 µM | [8] > 100 µM | [9] > 100 µM | [10] > 100 µM | [11] > 100 µM | [12] > 100 µM | [13] > 100 µM | [14] 54.2 µM | [19] > 100 µM | [15] > 100 µM | [16] > 100 µM | [17] > 100 µM | [18] > 100 µM

COc1ccc(CNC(=O)NCn2cc(-c3ccccc3)nn2)cc1
inactive: [2] > 100 µM | [3] > 100 µM | [4] > 100 µM | [5] > 100 µM | [7] > 100 µM | [8] > 100 µM | [9] > 100 µM | [10] > 100 µM | [11] > 100 µM | [12] > 100 µM | [13] > 100 µM | [19] > 100 µM | [15] > 100 µM | [16] > 100 µM | [17] > 100 µM | [18] > 100 µM

Nc1ncnc2c1ncn2C1OC(COC2C(CO)OC(OC(C(=O)O)C(O)C(OP(=O)(O)O)C(O)C(=O)O)C(O)C2O)C(O)C1O (stereo not drawn)
inactive: [2] > 100 µM | [3] > 100 µM | [4] > 100 µM | [5] > 100 µM | [6] > 100 µM | [7] > 100 µM | [8] > 100 µM | [9] 59.3 µM | [10] > 100 µM | [11] > 100 µM | [12] > 100 µM | [14] > 100 µM | [15] > 100 µM | [16] > 100 µM | [17] 90.2 µM | [18] > 100 µM

COC(=O)[C@@H]1[C@H](O)CCC2=C(CC(=O)c3ccoc3)[C@H](C)CC[C@]21C
inactive: [1] 24.5 µM | [2] > 50 µM | [4] 27.5 µM | [6] 26.2 µM | [7] > 50 µM | [8] > 50 µM | [10] 16.7 µM | [11] 36.1 µM | [12] > 50 µM | [14] 46.2 µM | [19] 22.2 µM | [15] > 50 µM | [16] 22.6 µM | [17] > 50 µM | [18] > 50 µM

Cc1cn(CC2=NC3CCCCC3N2)c(=O)[nH]c1=O (stereo not drawn)
inactive: [2] > 100 µM | [3] > 100 µM | [4] > 100 µM | [5] > 100 µM | [7] > 100 µM | [8] > 100 µM | [9] > 100 µM | [10] > 100 µM | [12] > 100 µM | [13] > 100 µM | [14] > 100 µM | [19] > 100 µM | [16] > 100 µM | [18] > 100 µM
